Test results from patent US20060069123A1, “Substituted dipiperidine CCR2 antagonists” (priority 2004, published 2006).

Target: T1, CCR2 (Homo sapiens, UniProt P41597)
T1 sequence (P41597 1-360 isoform P41597-2): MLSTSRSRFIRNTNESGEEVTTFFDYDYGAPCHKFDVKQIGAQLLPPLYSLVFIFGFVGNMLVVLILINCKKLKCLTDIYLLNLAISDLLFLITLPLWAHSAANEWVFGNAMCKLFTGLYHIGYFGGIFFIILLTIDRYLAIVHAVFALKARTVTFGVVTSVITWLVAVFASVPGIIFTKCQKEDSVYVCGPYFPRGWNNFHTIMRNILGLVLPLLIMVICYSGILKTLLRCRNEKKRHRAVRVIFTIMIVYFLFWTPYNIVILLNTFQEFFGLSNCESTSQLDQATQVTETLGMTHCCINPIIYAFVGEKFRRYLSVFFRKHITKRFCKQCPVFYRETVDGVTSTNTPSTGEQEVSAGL
Settings: for inhibition at 25 µM: read-out: Inhibition of MCP-1 Binding, percent inhibition

IC50	inhibition at 25 µM	SMILES
3800 nM	–	COC(=O)C(C1CCN(C(=O)/C=C/c2cc(F)cc(F)c2)CC1)N1CCC(c2ccc(OC)cc2)CC1 (stereo not shown) [Cpd 3, {1-[(2E)-3-(3,5-difluoro-phenyl)-acryloyl]-piperidin-4-yl}-[4-(4-methoxy-phenyl)-piperidin-1-yl]-acetic acid methyl ester]
4100 nM	–	Cc1cccc(/C=C/C(=O)N2CCC(C(CNC=O)N3CCC(c4c[nH]c5ccccc45)CC3)CC2)c1 (stereo not shown) [Cpd 223]
2100 nM	–	O=C(O)C(C1CCN(C(=O)Nc2cc(Cl)c(Cl)cc2Cl)CC1)N1CCC(c2c[nH]c3ccccc23)CC1 (stereo not shown) [Cpd 126, [4-(1H-indol-3-yl)-piperidin-1-yl]-[1-(2,4,5-trichloro-phenylcarbamoyl)-piperidin-4-yl]-acetic acid]
2900 nM	–	COC(=O)OCC(C1CCN(C(=O)/C=C/c2cc(F)cc(F)c2)CC1)N1CCC(c2ccc(Cl)cc2)CC1 (stereo not shown) [Cpd 250, carbonic acid 2-[4-(4-chloro-phenyl)-piperidin-1-yl]-2-{1-[(2E)-3-(3,5-difluoro-phenyl)-acryloyl]-piperidin-4-yl}-ethyl ester methyl ester]
3550 nM	–	COC(=O)c1ccc(NC(=O)N2CCC(C(C(=O)O)N3CCC(c4c[nH]c5ccccc45)CC3)CC2)cc1 (stereo not shown) [Cpd 68, 4-[(4-{carboxy-[4-(1H-indol-3-yl)-piperidin-1-yl]-methyl}-piperidine-1-carbonyl)-amino]-benzoic acid methyl ester]
370 nM	–	O=C(O)C(C1CCN(C(=O)/C=C/c2cc(F)c(F)c(F)c2)CC1)N1CCC(c2ccc(Cl)cc2)CC1 (stereo not shown) [Cpd 4, [4-(4-chloro-phenyl)-piperidin-1-yl]-{1-[(2E)-3-(3,4,5-trifluoro-phenyl)-acryloyl]-piperidin-4-yl}-acetic acid]
5800 nM	–	CN(C)CC(=O)NCC(C1CCN(C(=O)/C=C/c2cc(F)cc(F)c2)CC1)N1CCC(c2c[nH]c3ccccc23)CC1 (stereo not shown) [Cpd 252]
5850 nM	–	COC(=O)c1ccc(C2CCN(C(C(=O)O)C3CCN(C(=O)/C=C/c4cc(F)cc(F)c4)CC3)CC2)cc1 (stereo not shown) [Cpd 145, 4-[1-(carboxy-{1-[(2E)-3-(3,5-difluoro-phenyl)-acryloyl]-piperidin-4-yl}-methyl)-piperidin-4-yl]-benzoic acid methyl ester]
4600 nM	–	COC(=O)NCC(C1CCN(C(=O)/C=C/c2ccc(Cl)c(Cl)c2)CC1)N1CCC(c2c[nH]c3ccccc23)CC1 (stereo not shown) [Cpd 240]
2300 nM	–	O=C(/C=C/c1cc(F)cc(F)c1)N1CCC(C(CO)N2CCC(c3nccs3)CC2)CC1 (stereo not shown) [Cpd 194, (2E)-3-(3,5-difluoro-phenyl)-1-{4-[2-hydroxy-1-(4-thiazol-2-yl-piperidin-1-yl)-ethyl]-piperidin-1-yl}-propenone]
1700 nM	–	CCNC(=O)NCC(C1CCN(C(=O)/C=C/c2cc(F)cc(F)c2)CC1)N1CCC(c2c[nH]c3ccccc23)CC1 (stereo not shown) [Cpd 229]
–	58%	COC(=O)NCC(C1CCN(C(=O)/C=C/c2cccc(C)c2)CC1)N1CCC(c2c[nH]c3ccccc23)CC1 (stereo not shown) [Cpd 241]
1900 nM	–	O=C(/C=C/c1cc(F)c(F)c(F)c1)N1CCC(C(CO)N2CCC(c3coc4ncccc34)CC2)CC1 (stereo not shown) [Cpd 248, (2E)-1-{4-[1-(4-furo[2,3-b]pyridin-3-yl-piperidin-1-yl)-2-hydroxy-ethyl]-piperidin-1-yl}-3-(3,4,5-trifluoro-phenyl)-propenone]
4600 nM	–	CCNC(=O)NCC(C1CCN(C(=O)/C=C/c2cccc(C)c2)CC1)N1CCC(c2c[nH]c3ccccc23)CC1 (stereo not shown) [Cpd 231]
1900 nM	–	CCOC(=O)C(C1CCN(C(=O)/C=C/c2cc(F)c(F)c(F)c2)CC1)N1CCC(c2c[nH]c3ncccc23)CC1 (stereo not shown) [Cpd 152, [4-(1H-pyrrolo[2,3-b]pyridin-3-yl)-piperidin-1-yl]-{1-[(2E)-3-(3,4,5-trifluoro-phenyl)-acryloyl]-piperidin-4-yl}-acetic acid ethyl ester]
5700 nM	–	O=C(/C=C/c1ccc(Cl)c(Cl)c1)N1CCC(C(CO)N2CCC(c3nccs3)CC2)CC1 (stereo not shown) [Cpd 196]
253 nM	–	O=C(O)C(C1CCN(C(=O)/C=C/c2ccc(Cl)c(Cl)c2)CC1)N1CCC(c2ccc(Cl)cc2)CC1 (stereo not shown) [Cpd 1, [4-(4-chloro-phenyl)-piperidin-1-yl]-{1-[(2E)-3-(3,4-dichloro-phenyl)-acryloyl]-piperidin-4-yl}-acetic acid]
2000 nM	–	O=C(/C=C/c1cc(F)cc(F)c1)N1CCC(C(CO)N2CCC(c3ccccn3)CC2)CC1 (stereo not shown) [Cpd 200]

IC50	inhibition at 25 µM	SMILES
8800 nM	–	O=C(CC1CCN(C(C(=O)O)C2CCN(C(=O)/C=C/c3cc(F)cc(F)c3)CC2)CC1)NCc1ccccc1 (stereo not shown) [Cpd 148, [4-(benzylcarbamoyl-methyl)-piperidin-1-yl]-{1-[(2E)-3-(3,5-difluoro-phenyl)-acryloyl]-piperidin-4-yl}-acetic acid]
115 nM	–	O=C(O)C(C1CCN(C(=S)Nc2cc(F)cc(F)c2)CC1)N1CCC(c2c[nH]c3ccccc23)CC1 (stereo not shown) [Cpd 55, [1-(3,5-difluoro-phenylthiocarbamoyl)-piperidin-4-yl]-[4-(1H-indol-3-yl)-piperidin-1-yl]-acetic acid]
1610 nM	–	COc1ccc(/C=C/C(=O)N2CCC(C(C(=O)O)N3CCC(c4c[nH]c5ccccc45)CC3)CC2)cc1OC (stereo not shown) [Cpd 63, {1-[(2E)-3-(3,4-dimethoxy-phenyl)-acryloyl]-piperidin-4-yl}-[4-(1H-indol-3-yl)-piperidin-1-yl]-acetic acid]
16600 nM	–	O=C(CC1CCN(C(C(=O)O)C2CCN(C(=O)/C=C/c3cc(F)c(F)c(F)c3)CC2)CC1)NCc1ccccc1 (stereo not shown) [Cpd 149]
2100 nM	–	O=CNCC(C1CCN(C(=O)Nc2ccc(Cl)c(Cl)c2)CC1)N1CCC(c2c[nH]c3ccccc23)CC1 (stereo not shown) [Cpd 226]
–	52%	CS(=O)(=O)Nc1ccc(C2CCN(C(CO)C3CCN(C(=O)/C=C/c4cc(F)c(F)c(F)c4)CC3)CC2)cc1 (stereo not shown) [Cpd 209, N-{4-[1-(2-hydroxy-1-{1-[(2E)-3-(3,4,5-trifluoro-phenyl)-acryloyl]-piperidin-4-yl}-ethyl)-piperidin-4-yl]-phenyl}-methanesulfonamide]
4000 nM	–	CCNC(=O)NCC(C1CCN(C(=O)/C=C/c2cccc(C(F)(F)F)c2)CC1)N1CCC(c2c[nH]c3ccccc23)CC1 (stereo not shown) [Cpd 232]
2400 nM	–	COCC(C1CCN(C(=O)/C=C/c2cc(F)cc(F)c2)CC1)N1CCC(c2ccc(OC)cc2)CC1 (stereo not shown) [Cpd 255, (2E)-3-(3,5-difluoro-phenyl)-1-(4-{2-methoxy-1-[4-(4-methoxy-phenyl)-piperidin-1-yl]-ethyl}-piperidin-1-yl)-propenone]
680 nM	–	O=CNCC(C1CCN(C(=O)/C=C/c2ccc(Cl)c(Cl)c2)CC1)N1CCC(c2c[nH]c3ccccc23)CC1 (stereo not shown) [Cpd 222]
20 nM	–	O=C(O)C(C1CCN(C(=S)Nc2ccc(Cl)c(Cl)c2)CC1)N1CCC(c2c[nH]c3ccccc23)CC1 (stereo not shown) [Cpd 64, [1-(3,4-dichloro-phenylthiocarbamoyl)-piperidin-4-yl]-[4-(1H-indol-3-yl)-piperidin-1-yl]-acetic acid]
3900 nM	–	COc1cccc2c(C3CCN(C(CO)C4CCN(C(=O)OC(C)(C)C)CC4)CC3)c[nH]c12 (stereo not shown) [Cpd 131, 4-{2-hydroxy-1-[4-(7-methoxy-1H-indol-3-yl)-piperidin-1-yl]-ethyl}-piperidine-1-carboxylic acid tert-butyl ester]
5000 nM	–	CS(=O)(=O)Nc1ccc(C2CCN(C(CO)C3CCN(C(=O)/C=C/c4ccc(Cl)c(Cl)c4)CC3)CC2)cc1 (stereo not shown) [Cpd 210, N-{4-[1-(1-{1-[(2E)-3-(3,4-dichloro-phenyl)-acryloyl]-piperidin-4-yl}-2-hydroxy-ethyl)-piperidin-4-yl]-phenyl}-methanesulfonamide]
410 nM	–	O=C(O)C(C1CCN(C(=O)/C=C/c2cc(F)c(F)c(F)c2)CC1)N1CCC(Cc2c[nH]c3ccccc23)CC1 (stereo not shown) [Cpd 12, [4-(1H-indol-3-ylmethyl)-piperidin-1-yl]-{1-[(2E)-3-(3,4,5-trifluoro-phenyl)-acryloyl]-piperidin-4-yl}-acetic acid]
1000 nM	–	O=C(O)C(C1CCN(C(=O)Nc2ccc(Cl)cc2F)CC1)N1CCC(c2c[nH]c3ccccc23)CC1 (stereo not shown) [Cpd 117, [1-(4-chloro-2-fluoro-phenylcarbamoyl)-piperidin-4-yl]-[4-(1H-indol-3-yl)-piperidin-1-yl]-acetic acid]
845 nM	–	COc1ccc(NC(=O)N2CCC(C(C(=O)O)N3CCC(c4c[nH]c5ccccc45)CC3)CC2)cc1Cl (stereo not shown) [Cpd 67, [1-(3-chloro-4-methoxy-phenylcarbamoyl)-piperidin-4-yl]-[4-(1H-indol-3-yl)-piperidin-1-yl]-acetic acid]
–	53%	O=C(/C=C/c1ccc(C(F)(F)F)cc1)N1CCC(C(CCl)N2CCC(c3ccc(Cl)cc3)CC2)CC1 (stereo not shown) [Cpd 247, (2E)-1-(4-{2-chloro-1-[4-(4-chloro-phenyl)-piperidin-1-yl]-ethyl}-piperidin-1-yl)-3-(4-trifluoromethyl-phenyl)-propenone]
840 nM	–	COc1ccc(C2CCN(C(C(=O)O)C3CCN(C(=O)/C=C/c4cc(F)c(F)c(F)c4)CC3)CC2)cc1 (stereo not shown) [Cpd 5, [4-(4-methoxy-phenyl)-piperidin-1-yl]-{1-[(2E)-3-(3,4,5-trifluoro-phenyl)-acryloyl]-piperidin-4-yl}-acetic acid]
–	58%	O=C(C1CC1c1ccc(Cl)c(Cl)c1)N1CCC(C(CO)N2CCC(c3c[nH]c4ccccc34)CC2)CC1 (stereo not shown) [Cpd 212, [2-(3,4-dichloro-phenyl)-cyclopropyl]-(4-{2-hydroxy-1-[4-(1H-indol-3-yl)-piperidin-1-yl]-ethyl}-piperidin-1-yl)-methanone]

SMILES	IC50	inhibition at 25 µM
CC(=O)OCC(C1CCN(C(=O)OC(C)(C)C)CC1)N1CCC(c2c[nH]c3ccccc23)CC1 (stereo not shown) [Cpd 234, 4-{2-acetoxy-1-[4-(1H-indol-3-yl)-piperidin-1-yl]-ethyl}-piperidine-1-carboxylic acid tert-butyl ester]	11200 nM	–
